Toxic doses and inconclusive results are not listed. Cut-off read from the data, not from the text of the source: active = T/C of 150% or more; inactive = T/C below 125%.
Tested on: L1210 leukemia ip in BDF1 mice, survival T/C
Assay: NCI In Vivo Anticancer Drug Screen. Data for tumor model L1210 Leukemia (intraperitoneal) in B6D2F1 (BDF1) mice
Settings: endpoint: mean survival time, higher = longer survival
Outline: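 In this screen, tumor-bearing mice given compound are compared to those given vehicle, and their survival values are reported as a treated-to-control quotient.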

[1] = dose: 100.0 mg/kg/injection, schedule: Q04DX003 (ip), vehicle: saline
[2] = dose: 200.0 mg/kg/injection, schedule: Q04DX003 (ip), vehicle: saline
[3] = dose: 100.0 mg/kg/injection, schedule: Q01DX009 (ip), vehicle: saline with Tween-80
[4] = dose: 100.0 mg/kg/injection, schedule: Q01DX001 (ip), vehicle: carboxymethylcellulose (CMC)
[5] = dose: 100.0 mg/kg/injection, schedule: Q01DX001 (ip), vehicle: saline
[6] = dose: 200.0 mg/kg/injection, schedule: Q01DX001 (ip), vehicle: carboxymethylcellulose (CMC)
[7] = dose: 200.0 mg/kg/injection, schedule: Q01DX001 (ip), vehicle: saline
[8] = dose: 400.0 mg/kg/injection, schedule: Q01DX001 (ip), vehicle: carboxymethylcellulose (CMC)
[9] = dose: 400.0 mg/kg/injection, schedule: Q01DX001 (ip), vehicle: saline
[10] = dose: 100.0 mg/kg/injection, schedule: Q04DX002 (ip), vehicle: Klucel (hydroxypropylcellulose) (HPC)
[11] = dose: 200.0 mg/kg/injection, schedule: Q04DX002 (ip), vehicle: Klucel (hydroxypropylcellulose) (HPC)
[12] = dose: 400.0 mg/kg/injection, schedule: Q04DX002 (ip), vehicle: Klucel (hydroxypropylcellulose) (HPC)
[13] = dose: 50.0 mg/kg/injection, schedule: Q01DX001 (ip), vehicle: carboxymethylcellulose (CMC)
[14] = dose: 50.0 mg/kg/injection, schedule: Q01DX009 (ip), vehicle: Klucel (hydroxypropylcellulose) (HPC)
[15] = dose: 100.0 mg/kg/injection, schedule: Q01DX009 (ip), vehicle: Klucel (hydroxypropylcellulose) (HPC)
[16] = dose: 200.0 mg/kg/injection, schedule: Q01DX009 (ip), vehicle: Klucel (hydroxypropylcellulose) (HPC)
[17] = dose: 100.0 mg/kg/injection, schedule: Q04DX003 (ip), vehicle: Klucel (hydroxypropylcellulose) (HPC)
[18] = dose: 200.0 mg/kg/injection, schedule: Q04DX003 (ip), vehicle: Klucel (hydroxypropylcellulose) (HPC)

Measured: T/C

CCN(CC)CC(O)Cn1cnc2c(N)ncnc21 (stereo not given)
inactive: dose: 50.0 mg/kg/injection, schedule: Q04DX003 (ip), vehicle: saline 104 % of control | [1] 111 % of control | [2] 93 % of control

Cc1ccc(C(=O)CCCCCCCCC(=O)c2ccc(C)cc2)cc1
inactive: dose: 50.0 mg/kg/injection, schedule: Q01DX009 (ip), vehicle: saline with Tween-80 97 % of control | [3] 89 % of control | dose: 200.0 mg/kg/injection, schedule: Q01DX009 (ip), vehicle: saline with Tween-80 89 % of control

Cc1ccc(S(=O)(=O)OC2CCCC3CC(=O)CCC32C)cc1 (stereo not given)
inactive: dose: 50.0 mg/kg/injection, schedule: Q01DX001 (ip), vehicle: saline 101 % of control | [4] 103 % of control | [5] 101 % of control | [6] 105 % of control | [7] 95 % of control | [8] 103 % of control | [9] 98 % of control

Cc1ccnc(NS(=O)(=O)c2ccc(NC(=O)c3ccc(C(=O)Nc4ccc(S(=O)(=O)Nc5nccc(C)n5)cc4)cc3)cc2)n1
inactive: dose: 3.87 mg/kg/injection, schedule: Q01DX015 (ip), vehicle: methylcellulose (MC) 96 % of control | dose: 7.75 mg/kg/injection, schedule: Q01DX015 (ip), vehicle: methylcellulose (MC) 101 % of control | dose: 15.5 mg/kg/injection, schedule: Q01DX015 (ip), vehicle: methylcellulose (MC) 104 % of control | dose: 31.0 mg/kg/injection, schedule: Q01DX015 (ip), vehicle: methylcellulose (MC) 104 % of control | dose: 62.0 mg/kg/injection, schedule: Q01DX015 (ip), vehicle: methylcellulose (MC) 94 % of control | dose: 125.0 mg/kg/injection, schedule: Q01DX015 (ip), vehicle: methylcellulose (MC) 101 % of control | dose: 250.0 mg/kg/injection, schedule: Q01DX015 (ip), vehicle: methylcellulose (MC) 100 % of control | dose: 500.0 mg/kg/injection, schedule: Q01DX015 (ip), vehicle: methylcellulose (MC) 102 % of control

CN(N=O)C(=O)NCCNc1ncnc2nc[nH]c12
inactive: dose: 43.0 mg/kg/injection, schedule: Q01DX Z (ip), vehicle: carboxymethylcellulose (CMC) 86 % of control | dose: 87.0 mg/kg/injection, schedule: Q01DX Z (ip), vehicle: carboxymethylcellulose (CMC) 93 % of control | dose: 175.0 mg/kg/injection, schedule: Q01DX Z (ip), vehicle: carboxymethylcellulose (CMC) 94 % of control | dose: 350.0 mg/kg/injection, schedule: Q01DX Z (ip), vehicle: carboxymethylcellulose (CMC) 114 % of control

O=c1[nH]c2ccncc2c(=O)n1OS(=O)(=O)c1ccccc1
inactive: dose: 75.0 mg/kg/injection, schedule: Q01DX009 (ip), vehicle: Klucel (hydroxypropylcellulose) (HPC) 92 % of control | dose: 150.0 mg/kg/injection, schedule: Q01DX009 (ip), vehicle: Klucel (hydroxypropylcellulose) (HPC) 95 % of control | dose: 300.0 mg/kg/injection, schedule: Q01DX009 (ip), vehicle: Klucel (hydroxypropylcellulose) (HPC) 94 % of control

NC(CCCO)Cc1cc2ccccc2c2ccccc12 (stereo not given)
inactive: [5] 101 % of control | [7] 101 % of control | [9] 109 % of control

Cc1no[n+]([O-])c1C(N)=O
inactive: [10] 98 % of control | [11] 95 % of control | [12] 98 % of control

CCCc1cn(C(=O)NC2CCCCC2)c2ccccc12
inactive: [5] 94 % of control | [1] 106 % of control | [7] 94 % of control | [2] 112 % of control | [9] 87 % of control | dose: 400.0 mg/kg/injection, schedule: Q04DX003 (ip), vehicle: saline 93 % of control

O=C(N/N=C/c1ccc(Cl)cc1)C(O)(c1ccccc1)c1ccccc1
inactive: [3] 88 % of control | dose: 400.0 mg/kg/injection, schedule: Q01DX009 (ip), vehicle: saline with Tween-80 102 % of control

CNC1CCCCC1
inactive: [13] 96 % of control | [4] 102 % of control | [6] 106 % of control | [8] 112 % of control

COc1nc2c(N)ncnc2n1C1OC(CO)C(O)C1O (stereo not given)
inactive: [5] 97 % of control | [7] 103 % of control | [9] 103 % of control

COc1cccc(N(CCO)CCO)c1OC
inactive: dose: 3.75 mg/kg/injection, schedule: Q01DX Z (ip), vehicle: saline 93 % of control | dose: 7.5 mg/kg/injection, schedule: Q01DX Z (ip), vehicle: saline 93 % of control | dose: 15.5 mg/kg/injection, schedule: Q01DX Z (ip), vehicle: saline 97 % of control | dose: 31.0 mg/kg/injection, schedule: Q01DX Z (ip), vehicle: saline 97 % of control | dose: 62.5 mg/kg/injection, schedule: Q01DX Z (ip), vehicle: saline 96 % of control | dose: 125.0 mg/kg/injection, schedule: Q01DX Z (ip), vehicle: saline 101 % of control | dose: 250.0 mg/kg/injection, schedule: Q01DX Z (ip), vehicle: saline 97 % of control | dose: 500.0 mg/kg/injection, schedule: Q01DX Z (ip), vehicle: saline 101 % of control

NCC(=O)c1ccc(-c2ccccc2)cc1
inactive: [5] 97 % of control | [1] 90 % of control | [7] 92 % of control | [2] 98 % of control | [9] 97 % of control

CCOP(=O)(Nc1cccc(Cl)c1)OCC
inactive: [13] 94 % of control | [4] 94 % of control | [6] 105 % of control | [8] 103 % of control

CCCCCCCCN(CCCCCCCC)CC(=O)c1ccc2cc(Br)c3ccccc3c2c1
inactive: dose: 100.0 mg/kg/injection, schedule: Q01DX001 (ip), vehicle: alcohol 101 % of control | dose: 200.0 mg/kg/injection, schedule: Q01DX001 (ip), vehicle: alcohol 100 % of control | dose: 400.0 mg/kg/injection, schedule: Q01DX001 (ip), vehicle: alcohol 103 % of control

O=C(CBr)CCS(=O)(=O)c1ccc(Cl)cc1
inactive: dose: 5.0 mg/kg/injection, schedule: Q01DX009 (ip), vehicle: saline with Tween-80 102 % of control | dose: 5.0 mg/kg/injection, schedule: Q04DX003 (ip), vehicle: saline with Tween-80 101 % of control | dose: 10.0 mg/kg/injection, schedule: Q01DX009 (ip), vehicle: saline with Tween-80 104 % of control | dose: 10.0 mg/kg/injection, schedule: Q04DX003 (ip), vehicle: saline with Tween-80 103 % of control | dose: 20.0 mg/kg/injection, schedule: Q01DX009 (ip), vehicle: saline with Tween-80 97 % of control | dose: 20.0 mg/kg/injection, schedule: Q04DX003 (ip), vehicle: saline with Tween-80 97 % of control

CCC1CCCCN1CCNc1ccc(CO)c2sc3ccccc3c(=O)c12 (stereo not given)
inactive: [14] 101 % of control | [15] 115 % of control | [16] 120 % of control

Cc1cc(-c2ccc(N3C(=O)C=CC3=O)c(C)c2)ccc1N1C(=O)C=CC1=O
inactive: [17] 105 % of control | [18] 100 % of control

CC1(C)N=C(N)N=C(N)N1c1cccc(/C=C/c2cccc([N+](=O)[O-])c2)c1
inactive: [14] 102 % of control | [15] 90 % of control | [16] 106 % of control

O=[N+]([O-])C12CCC(c3ccccc31)c1ccccc12
inactive: dose: 100.0 mg/kg/injection, schedule: Q04DX002 (ip), vehicle: gum acacia 103 % of control | dose: 200.0 mg/kg/injection, schedule: Q04DX002 (ip), vehicle: gum acacia 101 % of control | dose: 400.0 mg/kg/injection, schedule: Q04DX002 (ip), vehicle: gum acacia 92 % of control

COc1cccc(NC(=S)N(CCC#N)C2CCCCC2)c1
inactive: dose: 100.0 mg/kg/injection, schedule: Q04DX002 (ip), vehicle: saline with Tween-80 102 % of control | dose: 200.0 mg/kg/injection, schedule: Q04DX002 (ip), vehicle: saline with Tween-80 97 % of control | dose: 400.0 mg/kg/injection, schedule: Q04DX002 (ip), vehicle: saline with Tween-80 97 % of control

C/C(=N\OC(=O)c1ccc([N+](=O)[O-])cc1)C(C)(C)C
inactive: [10] 88 % of control | [11] 100 % of control | [12] 96 % of control

CN(C)CCN1C(=O)c2ccccc2C(C(C)(C)[N+](=O)[O-])c2ccccc21 (stereo not given)
inactive: [17] 102 % of control | [18] 98 % of control | dose: 400.0 mg/kg/injection, schedule: Q04DX003 (ip), vehicle: Klucel (hydroxypropylcellulose) (HPC) 93 % of control

From PubChem BioAssay AID248 (DTP/NCI, 2004)
